According to patent US6797255B1, “Methods and compositions for enhancing magnetic resonance imaging” (Mallinckrodt Inc., priority 1985, dated 2004):

Legend:
rabbit = test: Bile proton T1 and T2 relaxation times over 105 min after intravenous injection; assay type: in vivo; settings: 0.03 mmol/kg i.v., one rabbit
Experimental: All experiments employing the complex dihydrogen bis(N-[N′-(2,6-dimethylphenyl)carbamoylmethyl]iminodiaceto)manganese (II) trihydrate were conducted following intravenous administration to rabbits. A 10 mM solution of the complex was used in these studies. Rabbits were anesthetized with ketamine/xylazine prior to treatment. The results given were obtained with a 10 mHz RADX proton spin analyzer.
In a third study, one rabbit received 0.03 mmol of the complex/kg and bile samples were collected at 5-20 min intervals over a 105 min time course and proton T1 and T2 relaxation times were determined. Control bile T1 relaxation time was 944 msec. within 1 min of injection, bile T1 was reduced to 60 msec. Over the 105 minute time course, bile T1 returned to a value of 91 msec, less than 10% of the preinjection control value. The preinjection bile T2 relaxation time was 16 msec.

Swiss CF-1 mice = test: Acute intravenous toxicity determination; assay type: in vivo; settings: for LD50: acute, intravenous, Trihydrate
Experimental: Dihydrogen Bis(N-[N′-(2,6-dimethylphenyl)carbamoylmethyl]iminidiaceto)manganese(II) trihydrate was dissolved in 0.9% sodium chloride Inj. USP as a 1.25% solution.
Male and female Swiss CF-1 mice with a body weight range of 17.4 to 24.2 grams were used. The mice were housed according to standard procedures and individually marked with picric acid.
The dose schedule was as follows:
Measured single doses were injected into the lateral tail vein at a rate of 1 ml/min. The animals were observed immediately after dosing and during the 7-day observation period for pharmacotoxic reactions. Recording of terminal body weights and general necropsy-of the thoracic and abdominal organs was performed after 7 days.

[1] = Relaxation parameters T1 and T2 of a 10^−3M solution in a 90 MHz NMR experiment; assay type: physicochemical; settings: 10^−3M solution
Experimental: The complex, dihydrogen bis(N-[N′-(2,6-diisopropylphenyl)carbamoylmethyl]iminodiaceto)manganese(II) hydrate, was thus isolated as the hydrated species. The solubility of the complex in water was determined to be approximately 0.1% w/v. The relaxation parameters T1 and T2 of a 10-^−3M solution of the complex in a 90 MHz NMR experiment were determined to be 0.107 sec. and 0.007 sec. respectively. The T1 and T2 values for water are 2.51 sec. and 0.150 sec., respectively.
The relaxation parameters T1 and T2 of a 10^−3M solution of the complex in a 90 MHz NMR experiment were determined to be 126 milliseconds and 1.5 milliseconds, respectively.

For Cc1cccc(C)c1NC(=O)CN(CC(=O)[O-])CC(=O)O.Cc1cccc(C)c1NC(=O)CN(CC(=O)[O-])CC(=O)O.O.O.O.[Mn+2] [Example 2], the “bile T1 relative to preinjection control value” (rabbit; at 105 min) was “less than 10%”, the “bile T2 relaxation time” value (rabbit; gradual increase following injection) was 44 ms and the “bile T1 relaxation time” value (rabbit; over the 105 minute time course (end value)) was 91 ms. The “bile T1 relaxation time” value (rabbit; within 1 min of injection) was 60 ms, the Body weight change (Swiss CF-1 mice; 0.360 mmol/kg i.v., after 7 days) was “+1.75 g” and the Mortalities/number tested (Swiss CF-1 mice; 0.360 mmol/kg i.v., day 1 after dosing) was 0/4. For the same compound, the Mortalities/number tested (Swiss CF-1 mice; 0.360 mmol/kg i.v., day 2 after dosing) was 0/4, the Mortalities/number tested (Swiss CF-1 mice; 0.360 mmol/kg i.v., day 3 after dosing) was 0/4 and the Mortalities/number tested (Swiss CF-1 mice; 0.360 mmol/kg i.v., day 4 after dosing) was 0/4. For the same compound, the Mortalities/number tested (Swiss CF-1 mice; 0.360 mmol/kg i.v., day 5 after dosing) was 0/4, the Mortalities/number tested (Swiss CF-1 mice; 0.360 mmol/kg i.v., day 6 after dosing) was 0/4 and the Mortalities/number tested (Swiss CF-1 mice; 0.360 mmol/kg i.v., day 7 after dosing) was 0/4. For the same compound, the Mortalities/number tested (Swiss CF-1 mice; 0.360 mmol/kg i.v., immediate) was 0/4, the Body weight change (Swiss CF-1 mice; 0.540 mmol/kg i.v., after 7 days) was “+2.0 g” and the Mortalities/number tested (Swiss CF-1 mice; 0.540 mmol/kg i.v., day 1 after dosing) was 2/4. The Mortalities/number tested (Swiss CF-1 mice; 0.540 mmol/kg i.v., day 2 after dosing) was 2/4, the Mortalities/number tested (Swiss CF-1 mice; 0.540 mmol/kg i.v., day 3 after dosing) was 2/4 and the Mortalities/number tested (Swiss CF-1 mice; 0.540 mmol/kg i.v., day 4 after dosing) was 2/4. For the same compound, the Mortalities/number tested (Swiss CF-1 mice; 0.540 mmol/kg i.v., day 5 after dosing) was 2/4, the Mortalities/number tested (Swiss CF-1 mice; 0.540 mmol/kg i.v., day 6 after dosing) was 2/4 and the Mortalities/number tested (Swiss CF-1 mice; 0.540 mmol/kg i.v., day 7 after dosing) was 2/4. For the same compound, the Mortalities/number tested (Swiss CF-1 mice; 0.540 mmol/kg i.v., immediate) was 2/4, the Body weight change (Swiss CF-1 mice; 0.630 mmol/kg i.v., after 7 days) was “+1.6 g” and the Mortalities/number tested (Swiss CF-1 mice; 0.630 mmol/kg i.v., day 1 after dosing) was 3/4. For the same compound, the Mortalities/number tested (Swiss CF-1 mice; 0.630 mmol/kg i.v., day 2 after dosing) was 3/4, the Mortalities/number tested (Swiss CF-1 mice; 0.630 mmol/kg i.v., day 3 after dosing) was 3/4 and the Mortalities/number tested (Swiss CF-1 mice; 0.630 mmol/kg i.v., day 4 after dosing) was 3/4. For the same compound, the Mortalities/number tested (Swiss CF-1 mice; 0.630 mmol/kg i.v., day 5 after dosing) was 3/4, the Mortalities/number tested (Swiss CF-1 mice; 0.630 mmol/kg i.v., day 6 after dosing) was 3/4 and the Mortalities/number tested (Swiss CF-1 mice; 0.630 mmol/kg i.v., day 7 after dosing) was 3/4. For the same compound, the Mortalities/number tested (Swiss CF-1 mice; 0.630 mmol/kg i.v., immediate) was 3/4, the “pharmacotoxic reactions immediately after injection” value (Swiss CF-1 mice; 0.360-0.630 mmol/kg i.v., mice) was “Mild to severe convulsions occurred in all the animals immediately after injections” and the “pharmacotoxic reactions of surviving animals” value (Swiss CF-1 mice; 0.360-0.630 mmol/kg i.v., mice) was “mild to severe depression which was resolved within one hour after dosing”. For the same compound, the weight gains (Swiss CF-1 mice; 7-day observation) was “normal”, the LD50 (Swiss CF-1 mice; mouse, listed as dihydrogen bis(N-[N′-(2,6-dimethylphenyl)carbamoylmethyl]-iminodiaceto)manganese) was roughly 0.5 mmol/kg and the LD50 (Swiss CF-1 mice; mouse, listed as dihydrogen bis(N-[N′-(2,6-dimethylphenyl)carbamoylmethyl]iminodiaceto)-manganese) was “approximately 0.540 mmol/kg”. The necropsy findings (Swiss CF-1 mice; after 7 days) was “did not reveal any abnormalities”, the diagnostic safety ratio (Swiss CF-1 mice; mouse i.v. LD50 vs ED50 for hepatic T1 enhancement) was “approximately 50” and the intravenous toxicity profile (Swiss CF-1 mice; mouse, in vivo, iv) was “favorable intravenous toxicity profile”. For the same compound, the “relaxation parameter T1” value [1] was 126 milliseconds and the “relaxation parameter T2” value [1] was 1.5 milliseconds.
